Laboratory results as given in publication PMC4450297, “Screening Active Compounds from Garcinia Species Native to China Reveals Novel Compounds Targeting the STAT/JAK Signaling Pathway” (BioMed Research International, 2015).

Assays:
Assay in all cases: Cell panel screen (CellTiter-Glo)
Format in all cases: cell-based, human
HCC1569 = HCC1569 (Breast), 20 micromolar, 72 hrs
Procedure: (§1) All cells were obtained from the cell bank of the American Type Culture Collection (ATCC) and cultured in the supplier's recommended media supplemented with 10% FBS. The cell panel screen was measured using the CellTiter-Glo assay (Promega, Madison, WI) following a standard protocol. Briefly, cancer cells were seeded in 96-well plates and cultured overnight at 37°C with or without 5% CO2 in an incubator. Each compound was dissolved with limited DMSO and diluted to a certain concentration with culture medium and then added to the corresponding well of the cell plate. The final concentration of compound was 20 μM. The control cells (without treatment) received the same amount of DMSO and were incubated under the same conditions. After 72 h cultivation, 100 μL of the CellTiter-Glo reagent was added directly to each well for 10-minute incubation. The plate was then read on a FlexStation 3 microplate luminometer (Molecular Devices, USA) to monitor the luminescence signal generated by the luciferase-catalyzed reaction of luciferin and ATP. The percent of growth inhibition was calculated using the following formula: (untreated cells − treated cells)/(untreated cells − background without cells) ∗ 100.

NCI-H2347 = NCI-H2347 (Lung), 20 micromolar, 72 hrs
Procedure: as §1

NCI-H524 = NCI-H524 (Lung), 20 micromolar, 72 hrs
Procedure: as §1

ChaGo-K-1 = ChaGo-K-1 (Lung), 20 micromolar, 72 hrs
Procedure: as §1

C3A = C3A (Liver), 20 micromolar, 72 hrs
Procedure: as §1

A498 = A498 (listed under Lung), 20 micromolar, 72 hrs
Procedure: as §1

HEC-1-A = HEC-1-A (Uterus), 20 micromolar, 72 hrs
Procedure: as §1

NCI-H1694 = NCI-H1694 (Lung), 20 micromolar, 72 hrs
Procedure: as §1

NCI-H28 = NCI-H28 (Lung), 20 micromolar, 72 hrs
Procedure: as §1

C8166 = C8166 (Leukemia), 20 micromolar, 72 hrs
Procedure: as §1

BT-474 = BT-474 (Breast), 20 micromolar, 72 hrs
Procedure: as §1

Bel-7402 = Bel-7402 (Liver), 20 micromolar, 72 hrs
Procedure: as §1

HPAF-II = HPAF-II (Pancreas), 20 micromolar, 72 hrs
Procedure: as §1

TCCSUP = TCCSUP (Urinary bladder), 20 micromolar, 72 hrs
Procedure: as §1

T98G = T98G (Brain), 20 micromolar, 72 hrs
Procedure: as §1

HT-1197 = HT-1197 (Urinary bladder), 20 micromolar, 72 hrs
Procedure: as §1

T47D = T47D (Breast), 20 micromolar, 72 hrs
Procedure: as §1

NCI-H1623 = NCI-H1623 (Lung), 20 micromolar, 72 hrs
Procedure: as §1

M059J = M059J (Brain), 20 micromolar, 72 hrs
Procedure: as §1

RL95 = RL95 (Uterus), 20 micromolar, 72 hrs
Procedure: as §1

MSTO-211-H = MSTO-211-H (Lung), 20 micromolar, 72 hrs
Procedure: as §1

SW13 = SW13 (Adrenal gland), 20 micromolar, 72 hrs
Procedure: as §1

HCC1599 = HCC1599 (Breast), 20 micromolar, 72 hrs
Procedure: as §1

ZR-75-30 = ZR-75-30 (Breast), 20 micromolar, 72 hrs
Procedure: as §1

HGC-27 = HGC-27 (Stomach), 20 micromolar, 72 hrs
Procedure: as §1

NCI-H2405 = NCI-H2405 (Lung), 20 micromolar, 72 hrs
Procedure: as §1

CW-2 = CW-2 (Colon), 20 micromolar, 72 hrs
Procedure: as §1

CCF-STTG1 = CCF-STTG1 (Brain), 20 micromolar, 72 hrs
Procedure: as §1

BT-549 = BT-549 (Breast), 20 micromolar, 72 hrs
Procedure: as §1

NCI-H1770 = NCI-H1770 (Lung), 20 micromolar, 72 hrs
Procedure: as §1

HCC1395 = HCC1395 (Breast), 20 micromolar, 72 hrs
Procedure: as §1

HCC1937 = HCC1937 (Breast), 20 micromolar, 72 hrs
Procedure: as §1

Colo 205 = conditions: Colo 205, 20 micromolar, 72 hrs
Procedure: as §1

Panc 03.27 = Panc 03.27 (Pancreas), 20 micromolar, 72 hrs
Procedure: as §1

J82 = J82 (Urinary bladder), 20 micromolar, 72 hrs
Procedure: as §1

A704 = A704 (Kidney), 20 micromolar, 72 hrs
Procedure: as §1

Row | SMILES | Percent Inhibition (HCC1569) [%] | Percent Inhibition (NCI-H2347) [%] | Percent Inhibition (NCI-H524) [%] | Percent Inhibition (ChaGo-K-1) [%] | Percent Inhibition (C3A) [%] | Percent Inhibition (A498) [%] | Percent Inhibition (HEC-1-A) [%] | Percent Inhibition (NCI-H1694) [%] | Percent Inhibition (NCI-H28) [%] | Percent Inhibition (C8166) [%] | Percent Inhibition (BT-474) [%] | Percent Inhibition (Bel-7402) [%] | Percent Inhibition (HPAF-II) [%] | Percent Inhibition (TCCSUP) [%] | Percent Inhibition (T98G) [%] | Percent Inhibition (HT-1197) [%] | Percent Inhibition (T47D) [%] | Percent Inhibition (NCI-H1623) [%] | Percent Inhibition (M059J) [%] | Percent Inhibition (RL95) [%] | further results
1 | CCOC(=O)C1OC(Oc2cc(O)c3c(c2)OC(c2ccc(O)c(O)c2)CC3=O)C(O)C(O)C1O (stereo not drawn) [gly-3] | -8 | 4 | -25 | -13 | -4 | -4 | -19 | 1 | -18 | -1 | -24 | -5 | -7 | -1 | -3 | 11 | -4 | 8 | 1 | 6 | Percent Inhibition (MSTO-211-H): -3%; Percent Inhibition (SW13): -5%; Percent Inhibition (HCC1599): -18%; Percent Inhibition (ZR-75-30): 13%; Percent Inhibition (HGC-27): -11%; Percent Inhibition (NCI-H2405): -3%; Percent Inhibition (CW-2): 4%; Percent Inhibition (CCF-STTG1): -4%; Percent Inhibition (BT-549): -14%; Percent Inhibition (NCI-H1770): -10%; Percent Inhibition (HCC1395): 9%; Percent Inhibition (HCC1937): 3%; Percent Inhibition (Colo 205): -6%; Percent Inhibition (Panc 03.27): 2%; Percent Inhibition (J82): -7%; Percent Inhibition (A704): -17%
2 | CC(C)=CCc1c(O)cc2oc3cc(O)c(O)c(CC=C(C)C)c3c(=O)c2c1O [Ge9] | 97 | 89 | 97 | 97 | 81 | 98 | 95 | 99 | 97 | 99 | 97 | 99 | 96 | 99 | 98 | 97 | 94 | 91 | -17 | 98 | Percent Inhibition (MSTO-211-H): 98%; Percent Inhibition (SW13): -3%; Percent Inhibition (HCC1599): 95%; Percent Inhibition (ZR-75-30): 99%; Percent Inhibition (HGC-27): 97%; Percent Inhibition (NCI-H2405): 96%; Percent Inhibition (CW-2): 99%; Percent Inhibition (CCF-STTG1): 99%; Percent Inhibition (BT-549): 97%; Percent Inhibition (NCI-H1770): 98%; Percent Inhibition (HCC1395): 98%; Percent Inhibition (HCC1937): 98%; Percent Inhibition (Colo 205): 98%; Percent Inhibition (Panc 03.27): 97%; Percent Inhibition (J82): 97%; Percent Inhibition (A704): 96%
3 | COc1cc(O)c2c(=O)c3cc4c(c(O)c3oc2c1CC=C(C)C)OC(C)(C)C=C4 [gl-12] | 19 | 9 | -2 | 38 | 7 | 11 | 13 | 28 | 2 | 25 | -2 | 5 | 21 | 11 | 28 | 20 | 21 | 5 | 27 | 23 | Percent Inhibition (MSTO-211-H): -5%; Percent Inhibition (SW13): -2%; Percent Inhibition (HCC1599): 52%; Percent Inhibition (ZR-75-30): 54%; Percent Inhibition (HGC-27): 34%; Percent Inhibition (NCI-H2405): 11%; Percent Inhibition (CW-2): 28%; Percent Inhibition (CCF-STTG1): 16%; Percent Inhibition (BT-549): -2%; Percent Inhibition (NCI-H1770): 34%; Percent Inhibition (HCC1395): 22%; Percent Inhibition (HCC1937): -7%; Percent Inhibition (Colo 205): 10%; Percent Inhibition (Panc 03.27): 24%; Percent Inhibition (J82): 17%; Percent Inhibition (A704): 3%
